Assays:
Settings in all cases: Compound concentration 10 µM
[1] = target: Sigma intracellular receptor 2 (Homo sapiens) (UniProt Q5BJF2)
[2] = target: Histamine H4 receptor (Homo sapiens) (UniProt Q9H3N8)
[3] = target: 5-hydroxytryptamine receptor 6 (Homo sapiens) (UniProt P50406)
[4] = target: T1, Alpha-1D adrenergic receptor (Homo sapiens) (UniProt P25100)
T1 sequence (whole entry): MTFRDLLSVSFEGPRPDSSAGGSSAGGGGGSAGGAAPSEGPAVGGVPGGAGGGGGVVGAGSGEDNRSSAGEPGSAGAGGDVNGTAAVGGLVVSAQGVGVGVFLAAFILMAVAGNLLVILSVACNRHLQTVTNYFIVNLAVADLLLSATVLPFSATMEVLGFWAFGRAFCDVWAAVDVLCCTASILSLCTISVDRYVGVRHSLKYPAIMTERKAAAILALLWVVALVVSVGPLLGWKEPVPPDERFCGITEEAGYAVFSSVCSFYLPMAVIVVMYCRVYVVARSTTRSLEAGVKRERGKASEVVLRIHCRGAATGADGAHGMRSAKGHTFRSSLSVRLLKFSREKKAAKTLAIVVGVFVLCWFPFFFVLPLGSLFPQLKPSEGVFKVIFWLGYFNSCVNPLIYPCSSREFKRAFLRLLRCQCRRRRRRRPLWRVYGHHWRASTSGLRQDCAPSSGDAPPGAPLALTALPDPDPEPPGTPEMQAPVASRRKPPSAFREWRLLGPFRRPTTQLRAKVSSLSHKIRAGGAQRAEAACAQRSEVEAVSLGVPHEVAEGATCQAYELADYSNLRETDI

[5] = target: Histamine H3 receptor (Homo sapiens) (UniProt Q9Y5N1)
Chain of Histamine H3 receptor (Homo sapiens) (Q9Y5N1 whole entry): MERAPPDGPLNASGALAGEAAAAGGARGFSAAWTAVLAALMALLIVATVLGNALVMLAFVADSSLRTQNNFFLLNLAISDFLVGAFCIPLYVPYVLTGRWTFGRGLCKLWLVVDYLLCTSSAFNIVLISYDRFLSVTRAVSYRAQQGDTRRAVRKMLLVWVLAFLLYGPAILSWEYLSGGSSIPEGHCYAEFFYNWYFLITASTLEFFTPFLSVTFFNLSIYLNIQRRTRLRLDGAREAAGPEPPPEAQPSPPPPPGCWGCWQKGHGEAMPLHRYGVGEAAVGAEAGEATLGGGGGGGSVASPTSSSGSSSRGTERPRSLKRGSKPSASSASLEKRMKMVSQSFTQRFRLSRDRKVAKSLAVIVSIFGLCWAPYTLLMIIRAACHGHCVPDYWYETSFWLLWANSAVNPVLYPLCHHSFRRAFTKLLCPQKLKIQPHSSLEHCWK

[6] = target: 5-hydroxytryptamine receptor 7 (Homo sapiens) (UniProt P34969)
Chain of 5-hydroxytryptamine receptor 7 (Homo sapiens) (P34969 whole entry): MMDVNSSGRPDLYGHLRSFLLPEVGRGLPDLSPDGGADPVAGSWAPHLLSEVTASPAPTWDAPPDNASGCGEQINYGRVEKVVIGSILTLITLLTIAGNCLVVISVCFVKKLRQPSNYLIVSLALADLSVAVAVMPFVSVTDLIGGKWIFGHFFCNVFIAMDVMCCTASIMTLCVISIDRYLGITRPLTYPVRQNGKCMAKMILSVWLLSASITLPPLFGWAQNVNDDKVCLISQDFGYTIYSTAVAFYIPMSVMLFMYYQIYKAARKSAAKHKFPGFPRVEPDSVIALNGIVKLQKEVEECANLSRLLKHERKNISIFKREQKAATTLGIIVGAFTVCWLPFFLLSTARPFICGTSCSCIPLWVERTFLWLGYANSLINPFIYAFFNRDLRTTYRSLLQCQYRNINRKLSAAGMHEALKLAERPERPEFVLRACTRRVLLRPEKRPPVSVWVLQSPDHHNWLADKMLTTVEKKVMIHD

[7] = target: Mu-type opioid receptor (Homo sapiens) (UniProt P35372)
Chain of Mu-type opioid receptor (Homo sapiens) (P35372 whole entry): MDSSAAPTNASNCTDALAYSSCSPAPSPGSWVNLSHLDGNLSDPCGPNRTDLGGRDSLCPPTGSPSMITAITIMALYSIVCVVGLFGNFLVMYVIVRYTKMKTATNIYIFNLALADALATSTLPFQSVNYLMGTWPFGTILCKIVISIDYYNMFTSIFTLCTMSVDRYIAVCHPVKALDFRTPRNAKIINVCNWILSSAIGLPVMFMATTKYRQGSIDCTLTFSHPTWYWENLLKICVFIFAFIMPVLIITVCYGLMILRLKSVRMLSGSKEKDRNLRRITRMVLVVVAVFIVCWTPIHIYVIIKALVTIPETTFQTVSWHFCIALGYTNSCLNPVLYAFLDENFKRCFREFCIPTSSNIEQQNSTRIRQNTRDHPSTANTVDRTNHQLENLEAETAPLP

[8] = target: T2, 5-hydroxytryptamine receptor 2C (Homo sapiens) (UniProt P28335)
T2 sequence (whole entry): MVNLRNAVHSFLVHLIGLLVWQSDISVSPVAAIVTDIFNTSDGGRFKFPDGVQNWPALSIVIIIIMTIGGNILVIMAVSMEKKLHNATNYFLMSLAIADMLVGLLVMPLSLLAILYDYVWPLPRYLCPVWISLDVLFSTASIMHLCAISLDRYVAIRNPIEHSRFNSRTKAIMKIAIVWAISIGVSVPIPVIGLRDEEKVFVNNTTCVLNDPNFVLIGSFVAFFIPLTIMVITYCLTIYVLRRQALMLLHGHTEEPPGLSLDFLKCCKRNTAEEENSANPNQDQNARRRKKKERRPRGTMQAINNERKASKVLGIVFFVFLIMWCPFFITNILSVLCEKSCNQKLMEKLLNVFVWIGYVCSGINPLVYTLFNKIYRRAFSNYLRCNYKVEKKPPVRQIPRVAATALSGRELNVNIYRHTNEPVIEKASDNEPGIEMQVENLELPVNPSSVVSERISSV

[9] = target: D(1B) dopamine receptor (Homo sapiens) (UniProt P21918)
Chain of D(1B) dopamine receptor (Homo sapiens) (P21918 whole entry): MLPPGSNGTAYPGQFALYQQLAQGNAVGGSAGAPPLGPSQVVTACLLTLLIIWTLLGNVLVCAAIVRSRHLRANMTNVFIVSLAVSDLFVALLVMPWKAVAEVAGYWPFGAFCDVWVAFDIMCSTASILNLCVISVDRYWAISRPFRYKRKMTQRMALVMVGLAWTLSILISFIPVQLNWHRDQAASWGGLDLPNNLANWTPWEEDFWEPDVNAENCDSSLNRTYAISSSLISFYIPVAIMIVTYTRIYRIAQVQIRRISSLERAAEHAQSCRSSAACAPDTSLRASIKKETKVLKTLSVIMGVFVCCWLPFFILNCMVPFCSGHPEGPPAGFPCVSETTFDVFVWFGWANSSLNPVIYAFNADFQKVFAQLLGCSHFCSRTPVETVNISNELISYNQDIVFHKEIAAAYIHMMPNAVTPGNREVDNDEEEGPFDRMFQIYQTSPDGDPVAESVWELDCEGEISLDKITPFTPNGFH

[10] = target: Delta-type opioid receptor (Homo sapiens) (UniProt P41143)
Chain of Delta-type opioid receptor (Homo sapiens) (P41143 whole entry): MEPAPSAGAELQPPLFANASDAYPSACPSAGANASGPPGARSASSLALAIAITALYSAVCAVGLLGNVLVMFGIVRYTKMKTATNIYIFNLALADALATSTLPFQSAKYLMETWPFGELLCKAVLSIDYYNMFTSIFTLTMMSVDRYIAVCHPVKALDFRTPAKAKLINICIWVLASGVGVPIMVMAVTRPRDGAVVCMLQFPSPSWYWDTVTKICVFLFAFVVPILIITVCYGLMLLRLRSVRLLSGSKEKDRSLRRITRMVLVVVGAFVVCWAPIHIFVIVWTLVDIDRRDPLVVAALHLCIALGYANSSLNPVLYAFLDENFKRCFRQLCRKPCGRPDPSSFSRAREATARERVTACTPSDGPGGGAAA

[11] = target: 5-hydroxytryptamine receptor 1D (Homo sapiens) (UniProt P28221)
Chain of 5-hydroxytryptamine receptor 1D (Homo sapiens) (P28221 whole entry): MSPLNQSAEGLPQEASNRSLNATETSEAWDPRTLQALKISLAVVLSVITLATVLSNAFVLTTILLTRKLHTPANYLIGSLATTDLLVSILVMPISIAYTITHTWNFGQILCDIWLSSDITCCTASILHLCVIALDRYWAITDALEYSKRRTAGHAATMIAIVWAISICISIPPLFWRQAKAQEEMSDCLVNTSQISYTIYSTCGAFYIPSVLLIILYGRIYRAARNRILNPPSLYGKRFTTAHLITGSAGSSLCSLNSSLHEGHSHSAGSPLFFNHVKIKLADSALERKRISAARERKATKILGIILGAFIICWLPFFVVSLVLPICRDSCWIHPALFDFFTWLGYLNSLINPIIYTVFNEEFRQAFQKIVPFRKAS

[12] = target: T3, Muscarinic acetylcholine receptor M1 (Homo sapiens) (UniProt P11229)
T3 sequence (whole entry): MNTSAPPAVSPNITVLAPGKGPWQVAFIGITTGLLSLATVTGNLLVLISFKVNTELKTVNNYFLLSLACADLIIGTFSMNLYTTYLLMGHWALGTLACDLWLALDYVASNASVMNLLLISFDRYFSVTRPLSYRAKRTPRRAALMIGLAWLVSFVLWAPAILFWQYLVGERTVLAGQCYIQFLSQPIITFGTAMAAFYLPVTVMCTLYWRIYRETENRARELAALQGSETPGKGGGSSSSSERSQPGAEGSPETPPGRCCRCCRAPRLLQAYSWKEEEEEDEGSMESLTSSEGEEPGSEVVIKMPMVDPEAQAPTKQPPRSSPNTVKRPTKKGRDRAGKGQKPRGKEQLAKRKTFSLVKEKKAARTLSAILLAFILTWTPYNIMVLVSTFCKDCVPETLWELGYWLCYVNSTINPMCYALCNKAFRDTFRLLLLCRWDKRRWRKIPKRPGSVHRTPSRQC

[13] = target: 5-hydroxytryptamine receptor 2A (Homo sapiens) (UniProt P28223)
Chain of 5-hydroxytryptamine receptor 2A (Homo sapiens) (P28223 whole entry): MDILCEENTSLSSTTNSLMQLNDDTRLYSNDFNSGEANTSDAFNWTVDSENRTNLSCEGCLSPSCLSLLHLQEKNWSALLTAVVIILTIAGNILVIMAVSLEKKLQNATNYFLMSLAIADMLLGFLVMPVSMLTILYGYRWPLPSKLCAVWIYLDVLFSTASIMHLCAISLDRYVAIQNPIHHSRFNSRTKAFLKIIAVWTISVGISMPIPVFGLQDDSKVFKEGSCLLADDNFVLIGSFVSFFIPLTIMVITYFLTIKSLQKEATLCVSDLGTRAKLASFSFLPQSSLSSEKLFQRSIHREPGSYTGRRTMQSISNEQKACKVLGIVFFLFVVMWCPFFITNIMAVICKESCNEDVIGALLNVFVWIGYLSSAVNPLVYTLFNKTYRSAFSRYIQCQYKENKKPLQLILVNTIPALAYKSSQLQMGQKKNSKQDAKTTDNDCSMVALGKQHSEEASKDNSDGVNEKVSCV

[14] = target: T4, Alpha-2B adrenergic receptor (Homo sapiens) (UniProt P18089)
T4 sequence (whole entry): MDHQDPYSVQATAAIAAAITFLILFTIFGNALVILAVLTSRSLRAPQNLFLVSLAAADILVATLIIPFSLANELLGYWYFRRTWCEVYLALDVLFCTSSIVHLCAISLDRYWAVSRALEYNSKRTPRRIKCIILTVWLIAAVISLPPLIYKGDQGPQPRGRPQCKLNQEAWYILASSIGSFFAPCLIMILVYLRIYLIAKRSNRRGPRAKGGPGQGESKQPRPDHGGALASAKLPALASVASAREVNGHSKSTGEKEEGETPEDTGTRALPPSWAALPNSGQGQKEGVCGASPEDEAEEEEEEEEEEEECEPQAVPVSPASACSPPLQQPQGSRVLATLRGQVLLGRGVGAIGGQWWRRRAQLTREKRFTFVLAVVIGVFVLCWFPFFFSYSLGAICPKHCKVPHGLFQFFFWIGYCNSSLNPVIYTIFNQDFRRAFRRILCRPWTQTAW

[15] = target: Beta-2 adrenergic receptor (Homo sapiens) (UniProt P07550)
Chain of Beta-2 adrenergic receptor (Homo sapiens) (P07550 whole entry, looked up): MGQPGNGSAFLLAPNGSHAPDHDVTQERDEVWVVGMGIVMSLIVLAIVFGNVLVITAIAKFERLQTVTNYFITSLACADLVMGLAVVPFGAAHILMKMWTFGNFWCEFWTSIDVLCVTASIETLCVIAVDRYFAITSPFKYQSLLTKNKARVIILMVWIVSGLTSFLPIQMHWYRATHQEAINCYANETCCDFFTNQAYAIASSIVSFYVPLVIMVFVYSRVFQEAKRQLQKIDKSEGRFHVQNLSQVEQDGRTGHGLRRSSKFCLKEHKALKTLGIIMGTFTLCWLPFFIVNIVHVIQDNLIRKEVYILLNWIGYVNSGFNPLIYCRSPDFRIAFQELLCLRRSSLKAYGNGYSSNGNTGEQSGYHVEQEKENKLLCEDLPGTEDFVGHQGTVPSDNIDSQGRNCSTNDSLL

[16] = target: Muscarinic acetylcholine receptor M3 (Homo sapiens) (UniProt P20309)
Chain of Muscarinic acetylcholine receptor M3 (Homo sapiens) (P20309 whole entry, looked up): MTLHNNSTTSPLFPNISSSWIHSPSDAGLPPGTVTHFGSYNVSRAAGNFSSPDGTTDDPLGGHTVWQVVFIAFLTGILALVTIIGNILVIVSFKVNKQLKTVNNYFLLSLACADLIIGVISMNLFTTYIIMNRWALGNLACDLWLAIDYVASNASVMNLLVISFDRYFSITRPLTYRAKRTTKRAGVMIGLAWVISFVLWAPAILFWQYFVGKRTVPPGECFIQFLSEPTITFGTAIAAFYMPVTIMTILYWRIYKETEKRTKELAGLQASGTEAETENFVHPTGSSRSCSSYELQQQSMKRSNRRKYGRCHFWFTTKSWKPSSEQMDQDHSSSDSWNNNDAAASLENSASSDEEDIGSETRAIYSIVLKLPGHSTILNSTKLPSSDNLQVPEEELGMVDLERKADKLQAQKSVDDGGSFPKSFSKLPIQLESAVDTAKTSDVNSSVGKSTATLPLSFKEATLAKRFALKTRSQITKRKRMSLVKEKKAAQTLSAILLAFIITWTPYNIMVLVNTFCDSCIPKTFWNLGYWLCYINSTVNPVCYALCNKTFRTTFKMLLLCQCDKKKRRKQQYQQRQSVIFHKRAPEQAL

Chain of 5-hydroxytryptamine receptor 6 (Homo sapiens) (P50406 whole entry): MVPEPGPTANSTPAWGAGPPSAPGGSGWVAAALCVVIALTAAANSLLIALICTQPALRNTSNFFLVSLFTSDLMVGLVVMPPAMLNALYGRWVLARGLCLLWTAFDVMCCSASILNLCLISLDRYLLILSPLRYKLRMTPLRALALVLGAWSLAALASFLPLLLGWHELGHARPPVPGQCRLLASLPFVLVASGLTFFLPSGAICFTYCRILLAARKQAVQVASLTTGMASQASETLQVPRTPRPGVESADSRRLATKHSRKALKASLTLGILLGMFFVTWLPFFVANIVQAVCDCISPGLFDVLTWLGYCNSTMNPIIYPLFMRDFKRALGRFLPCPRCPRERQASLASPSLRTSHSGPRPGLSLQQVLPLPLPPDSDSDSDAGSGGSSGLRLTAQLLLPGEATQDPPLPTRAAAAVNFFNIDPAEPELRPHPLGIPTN
Chain of Sigma intracellular receptor 2 (Homo sapiens) (Q5BJF2 whole entry): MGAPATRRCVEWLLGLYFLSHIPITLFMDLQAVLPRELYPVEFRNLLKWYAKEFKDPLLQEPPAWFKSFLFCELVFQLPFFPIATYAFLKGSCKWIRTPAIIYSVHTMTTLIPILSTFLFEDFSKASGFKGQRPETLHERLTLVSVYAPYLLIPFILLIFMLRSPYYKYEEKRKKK

CC(C)NCC(O)COc1cccc2ccccc12 (configuration not stated)
inhibition [1]: 90%
inhibition [2]: 10.8%
inhibition [3]: 74.2%
inhibition [4]: 12.7%
inhibition [5]: 5.07%
inhibition [6]: 13.3%
inhibition [7]: 17.4%
inhibition [8]: 68%
inhibition [9]: 10.2%
inhibition [10]: 7.31%
inhibition [11]: 87.2%

CCCCc1nc(Cl)c(CO)n1Cc1ccc(-c2ccccc2-c2nnn[nH]2)cc1
inhibition [1]: 27.4%
inhibition [2]: 7.13%
inhibition [3]: 17.6%
inhibition [4]: 13.1%
inhibition [5]: 31.4%
inhibition [6]: 40%
inhibition [7]: -1.17%
inhibition [8]: 55%
inhibition [9]: -1.67%
inhibition [10]: 19.2%
inhibition [11]: 43.4%

N#Cc1c(N)nc(SCC(N)=O)c(C#N)c1-c1ccc(OCC2CC2)cc1
inhibition [12]: 1.45%
inhibition [13]: 28.7%
inhibition [2]: 14.3%
inhibition [3]: 3.97%
inhibition [4]: 0.73%
inhibition [5]: -3.51%
inhibition [7]: -0.63%
inhibition [10]: -1.99%
inhibition [14]: -9.96%

CC(C)(C)NC[C@H](O)COc1nsnc1N1CCOCC1
inhibition [1]: 10.5%
inhibition [2]: 3.02%
inhibition [4]: 8.6%
inhibition [5]: 10.1%
inhibition [7]: -1.47%
inhibition [8]: -1.62%
inhibition [9]: 6.52%
inhibition [11]: 19.4%

C=CCN1C[C@H](C)N([C@H](c2ccc(C(=O)N(CC)CC)cc2)c2cccc(O)c2)C[C@H]1C
inhibition [1]: 46.7%
inhibition [12]: 4.09%
inhibition [13]: 2.09%
inhibition [2]: -9.85%
inhibition [15]: 3.05%
inhibition [3]: 5.03%
inhibition [5]: 0.95%
inhibition [16]: -6.19%
inhibition [7]: 98.5%
inhibition [8]: 0.93%
inhibition [10]: 99.9%
inhibition [11]: 31.4%
inhibition [14]: 9.01%

CN(C)C(=O)C(CCN1CCC(O)(c2ccc(Cl)cc2)CC1)(c1ccccc1)c1ccccc1
inhibition [1]: 95.5%
inhibition [2]: 7.53%
inhibition [15]: 44.6%
inhibition [3]: 14.9%
inhibition [4]: 38%
inhibition [5]: 10.4%
inhibition [6]: 20.8%
inhibition [8]: 0.09%
inhibition [9]: 1.53%
inhibition [10]: 91.5%
inhibition [11]: 55.2%

CC(C)NCC(O)COc1ccc(CCOCC2CC2)cc1 (configuration not stated)
inhibition [1]: 76.2%
inhibition [12]: 0.88%
inhibition [13]: 8.23%
inhibition [3]: -5.1%
inhibition [4]: 5.75%
inhibition [5]: 28.3%
inhibition [16]: 1.59%
inhibition [7]: 3.09%
inhibition [9]: 6.71%
inhibition [10]: 3.69%
inhibition [11]: 5.07%
inhibition [14]: 24.5%

N=C(N)SCCc1c[nH]cn1
inhibition [1]: 13.8%
inhibition [13]: -6.33%
inhibition [2]: 111%
inhibition [15]: 6.81%
inhibition [3]: -1.7%
inhibition [4]: 8.64%
inhibition [5]: 98.6%
inhibition [6]: 19.2%
inhibition [16]: -9.79%
inhibition [7]: -3.13%
inhibition [8]: -2.06%
inhibition [9]: 3.23%
inhibition [10]: -6.86%
inhibition [14]: 17.9%

Oc1ccc2c3c1O[C@H]1c4[nH]c5c(c4C[C@@]4(O)[C@@H](C2)N(CC2CC2)CC[C@]314)C[C@@]1(O)[C@H]2Cc3ccc(O)c4c3[C@@]1(CCN2CC1CC1)[C@H]5O4
inhibition [1]: 30.2%
inhibition [12]: 4.47%
inhibition [13]: 18.3%
inhibition [2]: 1.48%
inhibition [15]: -6.53%
inhibition [3]: 11.4%
inhibition [4]: 4.88%
inhibition [5]: 6.5%
inhibition [16]: 3.43%
inhibition [7]: 80.6%
inhibition [8]: 10.5%
inhibition [9]: -8.61%
inhibition [10]: 93.5%
inhibition [14]: 8.68%

CCN(CC)CCCCC1CCN(CC(=O)N2c3ccccc3C(=O)Nc3cccnc32)CC1
inhibition [1]: 82.1%
inhibition [12]: 89.1%
inhibition [13]: 9.83%
inhibition [2]: 21.4%
inhibition [15]: 5.55%
inhibition [3]: -7.42%
inhibition [4]: -4.13%
inhibition [5]: 43%
inhibition [16]: 88.7%
inhibition [7]: 10.4%
inhibition [9]: 82.5%
inhibition [10]: 24.6%
inhibition [11]: 33.2%
inhibition [14]: -3.71%

O=C(Nc1ccc(Cl)cc1)Nc1cccc(-c2cccc(N3CCCC3)n2)c1
inhibition [1]: 6.97%
inhibition [12]: 9.22%
inhibition [13]: 11%
inhibition [2]: -1.99%
inhibition [4]: 0.2%
inhibition [7]: -5.02%
inhibition [14]: 5.47%

Cc1nc2sccn2c(=O)c1CCN1CCC(=C(c2ccc(F)cc2)c2ccc(F)cc2)CC1
inhibition [1]: 98.7%
inhibition [12]: 18.5%
inhibition [13]: 91%
inhibition [2]: 59%
inhibition [15]: 1.44%
inhibition [3]: 98.1%
inhibition [4]: 97.8%
inhibition [5]: 30.7%
inhibition [6]: 90.2%
inhibition [16]: 6.1%
inhibition [7]: 63.5%
inhibition [8]: 97.8%
inhibition [9]: 74.1%
inhibition [10]: 17.7%
inhibition [14]: 84%

O=S1(=O)c2cccc3cccc(c23)N1CCCN1CCN(c2ccc(F)cc2)CC1
inhibition [1]: 96.9%
inhibition [12]: 12.9%
inhibition [13]: 103%
inhibition [2]: 5.54%
inhibition [15]: 21.3%
inhibition [3]: 52.9%
inhibition [4]: 92%
inhibition [5]: 45.5%
inhibition [6]: 90.5%
inhibition [16]: 1.23%
inhibition [7]: 43%
inhibition [8]: 97.4%
inhibition [9]: -1.71%
inhibition [10]: 8.66%
inhibition [14]: 104%

Cc1cccc(NC(=O)N[C@@H]2N=C(c3ccccc3)c3ccccc3N(C)C2=O)c1
inhibition [1]: 15.4%
inhibition [13]: 53.4%
inhibition [2]: 18.3%
inhibition [15]: -4.38%
inhibition [3]: 6.3%
inhibition [5]: -5.59%
inhibition [6]: 3.26%
inhibition [7]: 5.79%
inhibition [8]: -0.72%
inhibition [9]: 0.34%
inhibition [10]: 8.95%
inhibition [11]: 24.6%
inhibition [14]: 7.07%

CCCn1c(=O)c2[nH]c(-c3cnn(Cc4cccc(C(F)(F)F)c4)c3)nc2n(CC)c1=O
inhibition [1]: 18%
inhibition [12]: -6.12%
inhibition [15]: -2.75%
inhibition [5]: 3.01%
inhibition [16]: 3.75%
inhibition [7]: -6.55%
inhibition [9]: -3.39%
inhibition [10]: -6.13%
inhibition [11]: 10.2%
inhibition [14]: 11%
